{"source": "patent US20220194983A1", "about": "“PEPTIDE LIGANDS FOR BINDING TO PSMA” (BicycleTx Limited, priority 2018, published 2022)", "biological_target": "PSMA (Homo sapiens, UniProt Q04609)", "sequence (Q04609 whole entry)": "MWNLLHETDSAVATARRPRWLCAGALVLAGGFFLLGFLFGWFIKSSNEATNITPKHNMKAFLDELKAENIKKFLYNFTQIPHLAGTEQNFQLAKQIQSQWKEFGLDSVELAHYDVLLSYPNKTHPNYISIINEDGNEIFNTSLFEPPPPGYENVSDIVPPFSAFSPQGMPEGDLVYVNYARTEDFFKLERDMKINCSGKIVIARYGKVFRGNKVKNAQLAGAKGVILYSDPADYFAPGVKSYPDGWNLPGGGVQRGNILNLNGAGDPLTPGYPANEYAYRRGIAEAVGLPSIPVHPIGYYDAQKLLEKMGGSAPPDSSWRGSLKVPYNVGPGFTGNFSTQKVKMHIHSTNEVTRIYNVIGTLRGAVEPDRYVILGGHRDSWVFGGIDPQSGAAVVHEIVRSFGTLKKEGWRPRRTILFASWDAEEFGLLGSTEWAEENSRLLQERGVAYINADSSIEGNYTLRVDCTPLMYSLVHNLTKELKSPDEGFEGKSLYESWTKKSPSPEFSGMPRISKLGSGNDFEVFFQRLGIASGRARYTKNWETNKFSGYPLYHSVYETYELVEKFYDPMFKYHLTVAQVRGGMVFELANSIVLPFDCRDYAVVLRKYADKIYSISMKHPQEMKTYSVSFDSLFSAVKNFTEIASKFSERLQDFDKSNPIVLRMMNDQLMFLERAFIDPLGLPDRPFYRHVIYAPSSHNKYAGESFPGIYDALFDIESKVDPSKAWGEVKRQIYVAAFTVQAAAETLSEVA", "test": "measured PSMA affinities (ka, kd, KD) of Dap(Me) substituted bicycles, Table 1", "format": "binding", "conditions": "for ka: association rate; for kd: dissociation rate", "note": "“And” between values parts separate entries of the source, which are not always exact repeats. Identical values can stand only once."}
{"substance": "[Ac][Gla]V[Dap(Me)]WDCF[Nle][Nle]EDGT[Dap(Me)]A [BCY00009312]", "values": [{"measurement": "ka", "value": "1.01E+05 M1s1 and 7.35E+04 M1s1"}, {"measurement": "kd", "value": "7.77E−03 s1 and 1.21E−02 s1"}]}
{"substance": "[Ac][dE]V[Dap(Me)]WDCF[Nle][Hse(Me)]EDGT[Dap(Me)]A [BCY00009309]", "values": [{"measurement": "ka", "value": "5.17E+04", "unit": "M1s1"}, {"measurement": "kd", "value": "2.93E−01", "unit": "s1"}]}
{"substance": "[Ac][dE]V[Dap(Me)]WDCFL[Nle]EDGT[Dap(Me)]A [BCY00009306]", "values": [{"measurement": "ka", "value": "9.04E+04", "unit": "M1s1"}, {"measurement": "kd", "value": "1.97E−02", "unit": "s1"}]}
{"substance": "[Ac][dE]V[Dap(Me)]WDCK[Nle][Nle]EDGT[Dap(Me)]A [BCY00009315]", "values": [{"measurement": "ka", "value": "2.81E+04", "unit": "M1s1"}, {"measurement": "kd", "value": "4.62E−02", "unit": "s1"}]}
{"substance": "[Ac][dE]V[Dap(Me)]WDCFY[Nle]EDGT[Dap(Me)]A [BCY00009308]", "values": [{"measurement": "ka", "value": "8.73E+04", "unit": "M1s1"}, {"measurement": "kd", "value": "2.88E−02", "unit": "s1"}]}
{"substance": "[Ac][dE]V[Dap(Me)]WDCF[Nle][tBuAla]EDGT[Dap(Me)]A [BCY00009311]", "values": [{"measurement": "ka", "value": "2.51E+04", "unit": "M1s1"}, {"measurement": "kd", "value": "3.10E−03", "unit": "s1"}]}
{"substance": "[Ac][dE]V[Dap(Me)][2Nal]DCF[Nle][Nle]EDGT[Dap(Me)]A [BCY00009303]", "values": [{"measurement": "ka", "value": "8.74E+04", "unit": "M1s1"}, {"measurement": "kd", "value": "1.86E−02", "unit": "s1"}]}
{"substance": "[Glutarate][dE]V[Dap(Me)]WDCF[Nle][Nle]EDGT[Dap(Me)]A [BCY00009313]", "values": [{"measurement": "ka", "value": "1.24E+05", "unit": "M1s1"}, {"measurement": "kd", "value": "9.81E−03", "unit": "s1"}]}
{"substance": "[Ac][dE]V[Dap(Me)]WDCF[Nle][Nle]EDGT[Dap(Me)]A [BCY00009300]", "values": [{"measurement": "ka", "value": "7.04E+04", "unit": "M1s1"}, {"measurement": "kd", "value": "1.02E−02", "unit": "s1"}]}
{"substance": "[Ac][dE]V[Dap(Me)]KDCF[Nle][Nle]EDGT[Dap(Me)]A [BCY00009314]", "values": [{"measurement": "ka", "value": "3.79E+04", "unit": "M1s1"}, {"measurement": "kd", "value": "3.86E−02", "unit": "s1"}]}
{"substance": "[Ac][dE]V[Dap(Me)]WDCF[Nle]LEDGT[Dap(Me)]A [BCY00009310]", "values": [{"measurement": "ka", "value": "5.93E+04", "unit": "M1s1"}, {"measurement": "kd", "value": "4.32E−02", "unit": "s1"}]}
{"substance": "[Ac][dE]V[Dap(Me)]WDCF[Hse(Me)][Nle]EDGT[Dap(Me)]A [BCY00009305]", "values": [{"measurement": "ka", "value": "4.32E+04", "unit": "M1s1"}, {"measurement": "kd", "value": "5.35E−02", "unit": "s1"}]}
{"substance": "[Ac][dE]V[Dap(Me)]WDCF[tBuAla][Nle]EDGT[Dap(Me)]A [BCY00009307]", "values": [{"measurement": "ka", "value": "6.71E+04", "unit": "M1s1"}, {"measurement": "kd", "value": "3.26E−02", "unit": "s1"}]}
{"substance": "[Ac][dE]V[Dap(Me)]WDCY[Nle][Nle]EDGT[Dap(Me)]A [BCY00009304]", "values": [{"measurement": "ka", "value": "1.03E+05", "unit": "M1s1"}, {"measurement": "kd", "value": "1.24E−02", "unit": "s1"}]}
